Source: patent US10155764B2, “Therapeutic compounds and uses thereof” (GENENTECH, INC., priority 2014, dated 2018)

What follows are molecules tested against PCAF719-832 bromodomain (Homo sapiens (Human), UniProt Q92831) (assay: PCAF AlphaLisa binding assay). Settings: PCAF bromodomain 225 nM, biotinylated small molecule ligand 6 nM.
Chain of PCAF719-832 bromodomain (Q92831 719-832): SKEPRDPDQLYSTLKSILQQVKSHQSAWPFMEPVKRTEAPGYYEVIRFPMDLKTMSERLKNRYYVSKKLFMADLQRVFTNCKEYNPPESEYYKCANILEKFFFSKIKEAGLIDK

Row | Structure (SMILES) | IC50 [nM]
1 | CN(C)[C@@H]1c2ccccc2C[C@@H]1Nc1nn(C)c(=O)c2cccnc12 [Example 46A, 8-(((1R,2S)-1-(dimethylamino)-2,3-dihydro-1H-inden-2-yl)amino)-6-methylpyrido[2,3-d]pyridazin-5(6H)-one] | 4800
2 | CN(C)[C@H]1c2ccccc2C[C@H]1Nc1nn(C)c(=O)c2cccnc12 [Example 46B, 8-(((1S,2R)-1-(dimethylamino)-2,3-dihydro-1H-inden-2-yl)amino)-6-methylpyrido[2,3-d]pyridazin-5(6H)-one] | > 5000
3 | CN(C)[C@@H]1c2ccccc2C[C@@H]1Nc1nn(C)c(=O)c2ccccc12 [Example 47A, 4-(((1R,2S)-1-(dimethylamino)-2,3-dihydro-1H-inden-2-yl)amino)-2-methylphthalazin-1(2H)-one] | 2700
4 | CN(C)[C@H]1c2ccccc2C[C@H]1Nc1nn(C)c(=O)c2ccccc12 [Example 47B, 4-(((1S,2R)-1-(dimethylamino)-2,3-dihydro-1H-inden-2-yl)amino)-2-methylphthalazin-1(2H)-one] | > 5000
5 | CN(C)CCOc1nn(C)c(=O)c2ccccc12 [Example 48, 4-(2-(dimethylamino)ethoxy)-2-methylphthalazin-1(2H)-one] | 450
6 | COCCN(C)CCNc1nn(C)c(=O)c2ccccc12 [Example 49, 4-((2-((2-methoxyethyl)(methyl)amino)ethyl)amino)-2-methylphthalazin-1(2H)-one] | 3500
7 | C[C@H](Nc1nn(C)c(=O)c2ccccc12)[C@H](c1ccc(S(=O)(=O)c2ccccc2)cc1)N(C)C [Example 55, 4-(((1S,2S)-1-(dimethylamino)-1-(4-(phenylsulfonyl)phenyl)propan-2-yl)amino)-2-methylphthalazin-1(2H)-one] | 61
8 | COC(=O)c1ccc([C@@H]([C@H](C)Nc2nn(C)c(=O)c3cccnc23)N(C)C)cc1 [Example 68, Methyl 4-((1S,2S)-1-(dimethylamino)-2-((6-methyl-5-oxo-5,6-dihydropyrido[2,3-d]pyridazin-8-yl)amino)propyl)benzoate] | 160
9 | C[C@H](Nc1nn(C)c(=O)c2ccccc12)[C@H](c1ccc(O)cc1)N(C)C [Example 76, 4-(((1S,2S)-1-(dimethylamino)-1-(4-hydroxyphenyl)propan-2-yl)amino)-2-methylphthalazin-1(2H)-one] | 42
10 | C[C@H](Nc1nn(C)c(=O)c2cccnc12)[C@H](c1ccc(C(=O)O)cc1)N(C)C [Example 81, 4-((1S,2S)-1-(dimethylamino)-2-((6-methyl-5-oxo-5,6-dihydropyrido[2,3-d]pyridazin-8-yl)amino)propyl)benzoic acid] | 98

More lines, now with the values ahead:

Row | IC50 [nM] | Structure (SMILES)
11 | 150 | CN(C)CCNc1nn(C)c(=O)c2ccccc12 [Example 29, 4-((2-(dimethylamino)ethyl)amino)-2-methylphthalazin-1(2H)-one]
12 | 9400 | CC(C)NCCNc1nn(C)c(=O)c2ccccc12 [Example 40, 4-((2-(isopropylamino)ethyl)amino)-2-methylphthalazin-1(2H)-one]
13 | 2200 | Cn1nc(NCCN2CCCCC2)c2ccccc2c1=O [Example 41, 2-methyl-4-((2-(piperidin-1-yl)ethyl)amino)phthalazin-1(2H)-one]
14 | 9600 | CN1CCN(CCNc2nn(C)c(=O)c3ccccc23)CC1 [Example 42, 2-methyl-4-((2-(4-methylpiperazin-1-yl)ethyl)amino)phthalazin-1(2H)-one]
15 | 990 | Cn1nc(NCCN2CCC2)c2ccccc2c1=O [Example 50, 4-((2-(azetidin-1-yl)ethyl)amino)-2-methylphthalazin-1(2H)-one]
16 | 800 | CN(CCNc1nn(C)c(=O)c2ccccc12)C1COC1 [Example 51, 2-methyl-4-((2-(methyl(oxetan-3-yl)amino)ethyl)amino)phthalazin-1(2H)-one]
